Measurements: patent US6642238B2, “Oxazolidinone thioamides with piperazine amide substituents” (Pharmacia and Upjohn Company, priority 2000, dated 2003)
Values after ≈ are worked out from the molar mass of the structure shown.

Experiments:
[1] = system: Staphylococcus epidermidis (SEPI 30593); assay: MIC by agar dilution, SEPI 30593; assay type: cell-based; conditions: Minimum Inhibitory Concentration, strain SEPI 30593; for MIC: Staphylococcus epidermidis
Excerpt: (§1) The oxazolidinone antibacterial agents of this invention have useful activity against a variety of organisms. The in vitro activity of compounds of this invention can be assessed by standard testing procedures such as the determination of minimum inhibitory concentration (MIC) by agar dilution as described in “Approved Standard. Methods for Dilution Antimicrobial Susceptibility Tests for Bacteria That Grow Aerobically”, 3rd. ed., published 1993 by the National Committee for Clinical Laboratory Standards, Villanova, Pa., USA. The activity of compounds of this invention against Staphylococcus aureus, Staphylococcus epidermidis, Streptococcus pneumoniae, Streptococcus pyogens, Enterococcus faecalis, Moraxella catarrhalis and H. influenzae is shown in Table 1.

[2] = system: Streptococcus pyogens (SPYO 152); assay: MIC by agar dilution, SPYO 152; assay type: cell-based; conditions: Minimum Inhibitory Concentration, strain SPYO 152; for MIC: Streptococcus
Excerpt: as §1

[3] = system: Moraxella catarrhalis (MCAT 30607); assay: MIC by agar dilution, MCAT 30607; assay type: cell-based; conditions: Minimum Inhibitory Concentration, strain MCAT 30607; for MIC: Moraxella catarrhalis
Excerpt: as §1

[4] = system: Streptococcus pneumoniae (SPNE 9912); assay: MIC by agar dilution, SPNE 9912; assay type: cell-based; conditions: Minimum Inhibitory Concentration, strain SPNE 9912; for MIC: Streptococcus pneumoniae
Excerpt: as §1

[5] = system: Staphylococcus aureus (SAUR 9213); assay: MIC by agar dilution, SAUR 9213; assay type: cell-based; conditions: Minimum Inhibitory Concentration, strain SAUR 9213; for MIC: Staphylococcus aureus
Excerpt: as §1

[6] = system: H. influenzae (HINF 30063); assay: MIC by agar dilution, HINF 30063; assay type: cell-based; conditions: Minimum Inhibitory Concentration, strain HINF 30063; for MIC: Haemophilus influenzae
Excerpt: as §1

[7] = system: Enterococcus faecalis (EFAE 12712); assay: MIC by agar dilution, EFAE 12712; assay type: cell-based; conditions: Minimum Inhibitory Concentration, strain EFAE 12712; for MIC: Enterococcus faecalis
Excerpt: as §1

[8] = system: Enterococcus faecalis (EFAE 9217); assay: MIC by agar dilution, EFAE 9217; assay type: cell-based; conditions: Minimum Inhibitory Concentration, strain EFAE 9217; for MIC: Enterococcus faecalis
Excerpt: as §1

| Compound | MIC [1] [µg/mL] | MIC [2] [µg/mL] | MIC [3] [µg/mL] | MIC [4] [µg/mL] | MIC [5] [µg/mL] | MIC [6] [µg/mL] | MIC [7] [µg/mL] | MIC [8] [µg/mL] | melting point | SEPI 30593 MIC [1] [µg/mL] | SPYO 152 MIC [2] [µg/mL] | MCAT 30607 MIC [3] [µg/mL] | SPNE 9912 MIC [4] | SAUR 9213 MIC [5] [µg/mL] | HINF 30063 MIC [6] [µg/mL] | EFAE 12712 MIC [7] [µg/mL] | EFAE 9217 MIC [8] [µg/mL] |
| --- | --- | --- | --- | --- | --- | --- | --- | --- | --- | --- | --- | --- | --- | --- | --- | --- | --- |
| CCC(=S)NC[C@H]1CN(c2ccc(N3CCN(C(=O)CSC)CC3)c(F)c2)C(=O)O1 [EX 2, N-{[(5S)-3-(3-fluoro-4-{4-[2-(methylsulfanyl)acetyl]-1-piperazinyl}phenyl)-2-oxo-1,3-oxazolidin-5-yl]methyl}propanethioamide] | 1 (≈ 2.2 µM) | 1 (≈ 2.2 µM) | 4 (≈ 8.8 µM) | < 0.5 | 2 (≈ 4.4 µM) | > 64 | 1 (≈ 2.2 µM) | 1 (≈ 2.2 µM) |  |  |  |  |  |  |  |  |  |
| CCC(=S)NC[C@H]1CN(c2ccc(N3CCN(C(=O)CS(C)(=O)=O)CC3)c(F)c2)C(=O)O1 [EX 3, N-{ [(5S)-3-(3-fluoro-4-{4-[2-(methylsulfonyl)acetyl]-1-5 piperazinyl}phenyl]-2-oxo-1,3-oxazolidin-5-yl]methyl}propanethioamide] | 0.5 (≈ 1.03 µM) | 0.5 (≈ 1.03 µM) | 2 (≈ 4.11 µM) | 0.25 (≈ 0.514 µM) | 2 (≈ 4.11 µM) | 8 (≈ 16.4 µM) | 1 (≈ 2.06 µM) | 0.5 (≈ 1.03 µM) |  |  |  |  |  |  |  |  |  |
| CCC(=S)NC[C@H]1CN(c2ccc(N3CCN(C(C)=S)CC3)c(F)c2)C(=O)O1 [EX 4, N-({(5S)-3-[4-(4-ethanethiolyl-1-piperazinyl)-3-fluorophenyl]2-oxo-1,3-oxazolidin-5-yl}methyl)propanethioamide] | 0.25 (≈ 0.589 µM) | 0.125 (≈ 0.294 µM) | 1 (≈ 2.36 µM) | 0.125 (≈ 0.294 µM) | 0.5 (≈ 1.18 µM) | 1 (≈ 2.36 µM) | 0.5 (≈ 1.18 µM) | 0.5 (≈ 1.18 µM) | 209 to 210 °C |  |  |  |  |  |  |  |  |
| CCC(=S)NC[C@H]1CN(c2ccc(N3CCN(C#N)CC3)c(F)c2)C(=O)O1 [EX 5, N-({(5S)-3-[4-(4-cyano-1-piperazinyl)-3-fluorophenyl]-2-oxo-1,3-oxazolidin-5-yl}methyl)propanethioamide] | 0.25 (≈ 0.639 µM) | 0.125 (≈ 0.319 µM) | 1 (≈ 2.55 µM) | 0.125 (≈ 0.319 µM) | 0.25 (≈ 0.639 µM) | 2 (≈ 5.11 µM) | 0.25 (≈ 0.639 µM) | 0.25 (≈ 0.639 µM) | 182 to 184 °C |  |  |  |  |  |  |  |  |
| CCC(=S)NC[C@H]1CN(c2ccc(N3CCN(C(=O)COC(=O)OCCOC)CC3)c(F)c2)C(=O)O1 [EX 7, N-({(5S)-3-(3-fuoro-4-{4-[2-[(2-methoxyethoxy)carbonyloxy]acetyl]-1-piperazinyl}phenyl)-2-oxo-1,3-oxazolidin-5-yl}methyl) propanethioamide] | 1 (≈ 1.9 µM) | 0.25 (≈ 0.475 µM) | 4 (≈ 7.6 µM) | 0.25 (≈ 0.475 µM) | 2 (≈ 3.8 µM) | 4 (≈ 7.6 µM) | 2 (≈ 3.8 µM) | 2 (≈ 3.8 µM) | 150 to 151 °C |  |  |  |  |  |  |  |  |
| CCC(=S)NC[C@H]1CN(c2ccc(N3CCN(C(=O)[C@@H](O)COC)CC3)c(F)c2)C(=O)O1 [EX 8, N-[((5S)-3-{3-fluoro-4-[4-((2S)-2-hydroxy-3-methoxypropanoyl)-1-piperazinyl]phenyl}-2-oxo-1,3-oxazolidin-5-yl)methyl]propanethioamide] | 1 (≈ 2.13 µM) | 0.5 (≈ 1.07 µM) | 2 (≈ 4.27 µM) | 0.5 (≈ 1.07 µM) | 2 (≈ 4.27 µM) | 16 (≈ 34.1 µM) | 2 (≈ 4.27 µM) | 1 (≈ 2.13 µM) | 190 to 191 °C (dec.) |  |  |  |  |  |  |  |  |
| CCC(=S)NC[C@H]1CN(c2ccc(N3CCN(C(=O)[C@H](COC)OC)CC3)c(F)c2)C(=O)O1 [EX 9, N-[((5S)-3-{3-fluoro-4-[4-((2S)-2,3-dimethyoxypropanoyl)-1-piperazinyl]phenyl}-2-oxo-1,3-oxazolidin-5-yl)methyl]propanethioamide] |  |  |  |  |  |  |  |  |  | 2 | 1 | 4 | 1 µg/mL | 4 | 32 | 4 | 2 |
| CCC(=S)NC[C@H]1CN(c2ccc(N3CCN(C(=O)C(CO)OC)CC3)c(F)c2)C(=O)O1 (stereo partly drawn) [EX 10, N-[((5S)-3-{3-fluoro-4-[4-((2S)-3-hydroxy-2-methyoxypropanoyl)-1-piperazinyl]phenyl}-2-oxo-1,3-oxazolidin-5-yl)methyl]propanethioamide] | 2 (≈ 4.27 µM) | 1 (≈ 2.13 µM) | 4 (≈ 8.54 µM) | 1 (≈ 2.13 µM) | 4 (≈ 8.54 µM) | 16 (≈ 34.1 µM) | 2 (≈ 4.27 µM) | 1 (≈ 2.13 µM) |  |  |  |  |  |  |  |  |  |
| CCC(=S)NC[C@H]1CN(c2ccc(N3CCN(C(=O)C(C)=O)CC3)c(F)c2)C(=O)O1 [EX 12, N-({(5S)-3-[3-fluoro-4-(4-pyruvoyl-1-piperazinyl)phenyl]-2-oxo-1,3-oxazolidin-5-yl}methyl)propanethioamide] | 1 (≈ 2.29 µM) | 0.5 (≈ 1.15 µM) | 2 (≈ 4.58 µM) | 0.5 (≈ 1.15 µM) | 2 (≈ 4.58 µM) | 8 (≈ 18.3 µM) | 1 (≈ 2.29 µM) | 1 (≈ 2.29 µM) | 173 to 175 °C (dec.) |  |  |  |  |  |  |  |  |
| CCC(=S)NC[C@H]1CN(c2ccc(N3CCN(C(=O)CCO)CC3)c(F)c2)C(=O)O1 [EX 13] | 1 (≈ 2.28 µM) | 0.5 (≈ 1.14 µM) | 2 (≈ 4.56 µM) | 0.5 (≈ 1.14 µM) | 2 (≈ 4.56 µM) | 8 (≈ 18.2 µM) | 1 (≈ 2.28 µM) | 1 (≈ 2.28 µM) |  |  |  |  |  |  |  |  |  |
| CCC(=S)NC[C@H]1CN(c2ccc(N3CCN(C(=O)C4(O)CC4)CC3)c(F)c2)C(=O)O1 [EX 14, N-{[(5S)-3-(3-fluoro-4-{4-[(1-hydroxycyclopropyl)carbonyl]-1-piperazinyl}phenyl)-2-oxo-1,3-oxazolidin-5-yl]methyl}propanethioamide] | 1 (≈ 2.22 µM) | 1 (≈ 2.22 µM) | 2 (≈ 4.44 µM) | 0.5 (≈ 1.11 µM) | 4 (≈ 8.88 µM) | 32 (≈ 71 µM) | 2 (≈ 4.44 µM) | 1 (≈ 2.22 µM) | 185 to 186 °C (dec.) |  |  |  |  |  |  |  |  |
| CCC(=S)NC[C@H]1CN(c2ccc(N3CCN(C(=O)COc4ccccc4)CC3)c(F)c2)C(=O)O1 [EX 15, N-[((5S)-3-{3-fluoro-4-[4-(2-phenoxyacetyl)-1-piperazinyl]phenyl}-2-oxo-1,3-oxazolidin-5-yl)methyl]propanethioamide] | 0.5 (≈ 0.999 µM) | 0.5 (≈ 0.999 µM) | 2 (≈ 4 µM) | 0.25 (≈ 0.499 µM) | 2 (≈ 4 µM) | 32 (≈ 63.9 µM) | 1 (≈ 2 µM) | 0.5 (≈ 0.999 µM) | 171 to 172 °C |  |  |  |  |  |  |  |  |
| CCC(=S)NC[C@H]1CN(c2ccc(N3CCN(C(=O)C(C)(CO)CO)CC3)c(F)c2)C(=O)O1 [EX 18, N-{[(5S)-3-(3-fluoro-4-{4-[3-hydroxy-2-(hydroxymethyl)-2-mnethylpropanoyl]-1-piperazinyl}phenyl)-2-oxo-1,3-oxazolidin-5-yl]methyl}propanethioamide] |  |  |  |  |  |  |  |  |  | 1 | 1 | 4 | 0.5 µg/mL | 4 | 32 | 2 | 2 |
| CCC(=S)NC[C@H]1CN(c2ccc(N3CCN(C(=O)[C@H](O)c4ccccc4)CC3)c(F)c2)C(=O)O1 [EX 21, N-[((5S)-3-{3-fluoro-4-[4-((2R)-2-hydroxy-2-phenylacetyl)-1-piperazinyl]phenyl}-2-oxo-1,3-oxazolidin-5-yl)methyl]propanethioamide] | 1 (≈ 2 µM) | 2 (≈ 4 µM) | 4 (≈ 7.99 µM) | 1 (≈ 2 µM) | 4 (≈ 7.99 µM) | 64 (≈ 128 µM) | 2 (≈ 4 µM) | 2 (≈ 4 µM) |  |  |  |  |  |  |  |  |  |
| CCC(=S)NC[C@H]1CN(c2ccc(N3CCN(C(=O)[C@@H](OC(C)=O)c4ccccc4)CC3)c(F)c2)C(=O)O1 [EX 22, N-[((5S)-3-{3-fluoro-4-[4-((2S)-2-acetoxy-2-phenylacetyl)-1-piperazinyl]phenyl}-2-oxo-1,3-oxazolidin-5-yl)methyl]propanethioamide] | 4 (≈ 7.37 µM) | 4 (≈ 7.37 µM) | 8 (≈ 14.7 µM) | 2 (≈ 3.69 µM) | 8 (≈ 14.7 µM) | > 64 | 4 (≈ 7.37 µM) | 4 (≈ 7.37 µM) |  |  |  |  |  |  |  |  |  |
| N{[(5S)-3-(3-fluoro-4-{4-[2-(methylsulfinyl)acetyl]-1-piperazinyl}phenyl)-2-oxo-1,3-oxazolidin-5-yl]methyl }propanethioamide [EX 1] |  |  |  |  |  |  |  |  |  | 1 | 2 | 8 | .05 µg/mL | 4 | 8 | 2 | 1 |
